Measurements taken from ChEMBL document CHEMBL1201862, “PubChem BioAssay data set” (2004).
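Exposure lasted 48 hours, with cells grown in 96-well plates and compounds tested at five concentrations. GI50 = concentration required for 50% inhibition of growth.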 Activity calls are given as the source filed them. Cut-off read from the data, not from the text of the source: active = GI50 up to about 1.1 µM and inactive = higher.

What was measured:
Experiment in all cases: NCI tumour cell line growth inhibition, 48 h
HL-60 = test system: HL-60
ACHN = test system: ACHN
SF-539 = test system: SF-539
UO-31 = test system: UO-31
SK-MEL-5 = test system: SK-MEL-5
DU-145 = test system: DU-145
SNB-75 = test system: SNB-75
UACC-62 = test system: UACC-62
U-251 = test system: U-251
MCF7 = test system: MCF7
NCI-H23 = test system: NCI-H23
HCT-15 = test system: HCT-15
EKVX = test system: EKVX
MOLT-4 = test system: MOLT-4
A498 = test system: A498
SF-295 = test system: SF-295
SK-OV-3 = test system: SK-OV-3
CAKI-1 = test system: CAKI-1
MDA-MB-231 = test system: MDA-MB-231
Malme-3M = test system: Malme-3M
SNB-19 = test system: SNB-19
IGROV-1 = test system: IGROV-1
RXF 393 = test system: RXF 393
OVCAR-8 = test system: OVCAR-8
HT-29 = test system: HT-29
HCC 2998 = test system: HCC 2998
OVCAR-4 = test system: OVCAR-4
MDA-MB-435 = test system: MDA-MB-435
UACC-257 = test system: UACC-257
Hs-578T = test system: Hs-578T
SR = test system: SR
NCI-H226 = test system: NCI-H226
HOP-92 = test system: HOP-92
A549 = test system: A549
BT-549 = test system: BT-549
HCT-116 = test system: HCT-116
PC-3 = test system: PC-3
K562 = test system: K562
NCI/ADR-RES = test system: NCI/ADR-RES
CCRF-CEM = test system: CCRF-CEM
TK-10 = test system: TK-10
M14 = test system: M14
NCI-H460 = test system: NCI-H460
NCI-H522 = test system: NCI-H522
RPMI-8226 = test system: RPMI-8226
SK-MEL-28 = test system: SK-MEL-28
HOP-62 = test system: HOP-62
MDA-N = test system: MDA-N
786-0 = test system: 786-0
SK-MEL-2 = test system: SK-MEL-2
T47D = test system: T47D
KM12 = test system: KM12
COLO 205 = test system: COLO 205
OVCAR-5 = test system: OVCAR-5
SF-268 = test system: SF-268
SW-620 = test system: SW-620
SN12C = test system: SN12C

With `O=C(CCc1cc(O)ccc1O)OCCc1ccccc1` as the molecule, how does the GI50 (HL-60) read?
Its GI50 is 0.718 µM (active).

And the GI50 (ACHN)?
The GI50 was 4.33 µM (inactive).

And the GI50 (SF-539)?
Its GI50 is 3.83 µM (inactive).

What about the GI50 (UO-31) of the same molecule?
Its GI50 is 4.6 µM (inactive).

What about the GI50 (SK-MEL-5) of the same molecule?
The GI50 was 22.2 µM (inactive).

What about the GI50 (DU-145) of the same molecule?
Its GI50 is 19.9 µM (inactive).

And the GI50 (SNB-75)?
Its GI50 is > 64.1 µM (inactive).

What about the GI50 (UACC-62) of the same molecule?
Its GI50 is 12.4 µM (inactive).

And the GI50 (U-251)?
The GI50 was 13.6 µM (inactive).

What about the GI50 (MCF7) of the same molecule?
The GI50 was 15.8 µM (inactive).

And the GI50 (NCI-H23)?
Its GI50 is 32.7 µM (inactive).

What about the GI50 (HCT-15) of the same molecule?
Its GI50 is 11.1 µM.

What about the GI50 (EKVX) of the same molecule?
The GI50 was 16.6 µM (inactive).

And the GI50 (MOLT-4)?
The GI50 was 1.36 µM (inactive).

What about the GI50 (A498) of the same molecule?
The GI50 was > 100 µM (inactive).

What about the GI50 (SF-295) of the same molecule?
Its GI50 is 37.5 µM (inactive).

And the GI50 (SK-OV-3)?
The GI50 was > 100 µM (inactive).

And the GI50 (CAKI-1)?
Its GI50 is 7.66 µM (inactive).

And the GI50 (MDA-MB-231)?
The GI50 was 15.6 µM (inactive).

And the GI50 (Malme-3M)?
Its GI50 is 12.6 µM (inactive).

And the GI50 (SNB-19)?
Its GI50 is 48.5 µM (inactive).

And the GI50 (IGROV-1)?
The GI50 was 12.7 µM (inactive).

And the GI50 (RXF 393)?
Its GI50 is 11.7 µM (inactive).

And the GI50 (OVCAR-8)?
Its GI50 is 12.7 µM (inactive).

What about the GI50 (HT-29) of the same molecule?
The GI50 was 41.1 µM (inactive).

What about the GI50 (HCC 2998) of the same molecule?
Its GI50 is 47.2 µM (inactive).

What about the GI50 (OVCAR-4) of the same molecule?
Its GI50 is 1.49 µM (inactive).

And the GI50 (MDA-MB-435)?
The GI50 was 10.4 µM (inactive).

What about the GI50 (UACC-257) of the same molecule?
The GI50 was 12.4 µM (inactive).

What about the GI50 (Hs-578T) of the same molecule?
Its GI50 is 16.1 µM (inactive).

What about the GI50 (SR) of the same molecule?
Its GI50 is 5.6 µM (inactive).

And the GI50 (NCI-H226)?
Its GI50 is > 28.3 µM (inactive).

And the GI50 (HOP-92)?
The GI50 was 2.96 µM (inactive).

And the GI50 (A549)?
The GI50 was > 100 µM (inactive).

And the GI50 (BT-549)?
Its GI50 is 11.5 µM (inactive).

And the GI50 (HCT-116)?
Its GI50 is 13 µM (inactive).

What about the GI50 (PC-3) of the same molecule?
The GI50 was 4.91 µM (inactive).

What about the GI50 (K562) of the same molecule?
Its GI50 is 1.4 µM (inactive).

And the GI50 (NCI/ADR-RES)?
Its GI50 is 19.1 µM (inactive).

What about the GI50 (CCRF-CEM) of the same molecule?
Its GI50 is 0.313 µM (active).

And the GI50 (TK-10)?
Its GI50 is 14.7 µM (inactive).

And the GI50 (M14)?
Its GI50 is 23.4 µM (inactive).

And the GI50 (NCI-H460)?
The GI50 was 44.8 µM (inactive).

And the GI50 (NCI-H522)?
Its GI50 is 0.28 µM (active).

What about the GI50 (RPMI-8226) of the same molecule?
Its GI50 is 0.875 µM (active).

And the GI50 (SK-MEL-28)?
Its GI50 is 25.1 µM (inactive).

And the GI50 (HOP-62)?
The GI50 was 36.1 µM (inactive).

And the GI50 (MDA-N)?
The GI50 was 12.7 µM (inactive).

What about the GI50 (786-0) of the same molecule?
The GI50 was 9.53 µM (inactive).

And the GI50 (SK-MEL-2)?
Its GI50 is 18.7 µM (inactive).

And the GI50 (T47D)?
The GI50 was 16.4 µM (inactive).

What about the GI50 (KM12) of the same molecule?
Its GI50 is 8.53 µM (inactive).

What about the GI50 (COLO 205) of the same molecule?
Its GI50 is 14.2 µM (inactive).

And the GI50 (OVCAR-5)?
The GI50 was 27.4 µM (inactive).

What about the GI50 (SF-268) of the same molecule?
Its GI50 is 5.64 µM (inactive).

What about the GI50 (SW-620) of the same molecule?
Its GI50 is 16.3 µM (inactive).

What about the GI50 (SN12C) of the same molecule?
The GI50 was 16.8 µM (inactive).
